For assay [1], the target named is T1, SOS-mediated nucleotide exchange on Ras (Homo sapiens, UniProt Q07889).
T1 sequence (Q07889 1-1333): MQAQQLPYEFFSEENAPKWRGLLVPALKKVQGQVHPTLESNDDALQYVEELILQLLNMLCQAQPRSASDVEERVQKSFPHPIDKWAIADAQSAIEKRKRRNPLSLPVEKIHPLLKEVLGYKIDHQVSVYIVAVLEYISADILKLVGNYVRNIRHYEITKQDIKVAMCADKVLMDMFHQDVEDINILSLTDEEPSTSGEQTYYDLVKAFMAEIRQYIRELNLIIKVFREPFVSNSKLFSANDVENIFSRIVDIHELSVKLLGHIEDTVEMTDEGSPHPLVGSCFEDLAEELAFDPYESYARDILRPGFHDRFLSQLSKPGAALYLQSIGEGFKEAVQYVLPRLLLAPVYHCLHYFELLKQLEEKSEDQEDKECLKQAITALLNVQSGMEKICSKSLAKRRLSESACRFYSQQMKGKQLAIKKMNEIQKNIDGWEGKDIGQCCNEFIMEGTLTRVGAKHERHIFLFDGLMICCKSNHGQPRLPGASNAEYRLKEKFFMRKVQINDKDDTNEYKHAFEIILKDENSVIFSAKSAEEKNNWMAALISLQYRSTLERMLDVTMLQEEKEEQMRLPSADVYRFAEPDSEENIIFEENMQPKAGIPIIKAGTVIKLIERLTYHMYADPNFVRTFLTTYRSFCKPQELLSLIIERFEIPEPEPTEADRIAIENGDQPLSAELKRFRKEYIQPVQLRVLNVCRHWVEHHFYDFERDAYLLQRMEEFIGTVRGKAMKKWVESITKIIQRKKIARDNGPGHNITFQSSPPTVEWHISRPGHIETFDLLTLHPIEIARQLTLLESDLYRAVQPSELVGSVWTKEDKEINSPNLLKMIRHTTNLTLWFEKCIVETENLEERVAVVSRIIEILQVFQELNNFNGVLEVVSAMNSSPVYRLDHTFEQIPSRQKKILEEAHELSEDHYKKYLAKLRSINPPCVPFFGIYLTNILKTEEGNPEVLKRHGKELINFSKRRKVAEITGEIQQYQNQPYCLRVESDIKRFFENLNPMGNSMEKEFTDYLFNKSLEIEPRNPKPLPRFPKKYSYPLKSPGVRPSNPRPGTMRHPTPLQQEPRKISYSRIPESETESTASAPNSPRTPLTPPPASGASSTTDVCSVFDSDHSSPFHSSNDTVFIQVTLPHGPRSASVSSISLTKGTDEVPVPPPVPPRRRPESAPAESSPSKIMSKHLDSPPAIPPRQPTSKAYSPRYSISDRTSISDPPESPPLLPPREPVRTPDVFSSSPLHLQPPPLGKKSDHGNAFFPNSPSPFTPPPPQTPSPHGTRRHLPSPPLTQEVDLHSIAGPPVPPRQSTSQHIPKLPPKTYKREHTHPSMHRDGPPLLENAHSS
The assay is described as follows: SOS-mediated nucleotide exchange on Ras (BODIPY-GDP fluorescence). In kind it is biochemical. Particulars: Ras loaded with BODIPY-GDP, GTP and SOS added; EC50 from derived exchange rates. How it is done:
A. SOS-Mediated Nucleotide Exchange on Ras
Compounds of the present invention were tested for their ability to modify the rate at which Ras exchanges a labeled nucleotide guanosine diphosphate (GDP) analog for guanosine triphosphate (GTP). Briefly, test compounds, then GTP and the Ras GEF SOS (Son of Sevenless) are added to a buffered solution containing Ras protein loaded with BODIPY-GDP. Changes in fluorescence indicating exchange of the labeled GDP for GTP are monitored over time. Raw fluorescence data was fit to a single exponential decay function and derived rates were plotted as mean values. EC50 values were calculated by plotting mean derived rates as a function of compound concentration and fit using a four-parameter dose-response curve. Full assay details are disclosed in: Burns, M. C.; Sun, Q.; Daniels, R. N.; Camper, D. V.; Kennedy, J. P.; Phan, J.; Olejniczak, E. O.; Lee, T.; Waterson, A. G.; Rossanese, O. W.; Fesik, S. W. “Approach for targeting Ras with small molecules that activate SOS-mediated nucleotide exchange” Proc. Natl. Acad. Sci. 2014; 11(9): 3401-3406. PMCID: PMC3948241.

For a further assay, the target named is T2, Son of Sevenless (SOS) (Homo sapiens, UniProt Q07889).
T2 sequence (Q07889 564-1049 limits assumed): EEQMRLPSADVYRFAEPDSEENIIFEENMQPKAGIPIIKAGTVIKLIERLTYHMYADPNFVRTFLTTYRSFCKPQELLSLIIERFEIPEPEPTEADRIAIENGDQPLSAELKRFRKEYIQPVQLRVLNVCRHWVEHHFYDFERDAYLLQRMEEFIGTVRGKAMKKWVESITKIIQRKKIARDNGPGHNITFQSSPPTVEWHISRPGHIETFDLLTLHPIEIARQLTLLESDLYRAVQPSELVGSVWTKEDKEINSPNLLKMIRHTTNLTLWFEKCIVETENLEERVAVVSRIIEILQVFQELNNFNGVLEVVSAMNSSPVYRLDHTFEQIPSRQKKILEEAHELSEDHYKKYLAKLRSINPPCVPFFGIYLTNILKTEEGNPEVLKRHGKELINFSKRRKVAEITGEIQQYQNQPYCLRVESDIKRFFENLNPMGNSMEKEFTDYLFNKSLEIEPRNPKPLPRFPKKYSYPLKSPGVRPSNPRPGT
The assay is described as follows: Binding to SOS, fluorescence polarization anisotropy (FPA) displacement of FITC-conjugated probe. Particulars: binding affinity calculated from IC50 of FITC-probe displacement, read-out: Binding affinities (binding affinity to SOS). As to the method:
Compounds of the present invention were tested for their ability to the Ras guanine exchange factor (GEF) Son of Sevenless (SOS). Binding to SOS was measured using a Fluorescence polarization anisotropy (FPA) assay that assesses the ability of a test compound to displace a fluorescent FITC-conjugated compound. Briefly, the labeled probe compound is incubated with SOS in buffer. Changes in anisotropy indicative of displacement of the labeled probe for a test compound are assessed over a dose range of test compound. Data was analyzed by plotting fluorescence anisotropy values as a function of compound concentration. IC50 values were determined using a four-parameter dose-response (variable slope) and binding affinities were calculated from this IC50 value. This assay is performed in a method analogous to the assay disclosed in: Burns, M. C.; Sun, Q.; Daniels, R. N.; Camper, D. V.; Kennedy, J. P.; Phan, J.; Olejniczak, E. O.; Lee, T.; Waterson, A. G.; Rossanese, O. W.; Fesik, S. W. “Approach for targeting Ras with small molecules that activate SOS-mediated nucleotide exchange” Proc. Natl. Acad. Sci. 2014; 11(9): 3401-3406. PMCID: PMC3948241.

Broadly, the EC50 is the midpoint of the concentration-response curve. Low readings indicate higher potency in that assay, high ones lower potency in that assay.

Each structure is given as a SMILES string.

On to `CCC(Nc1nc(Nc2ccc(F)c(Cl)c2)nc2ccccc12)C(C)C` (stereo not shown) [Example 2, N^2-(3-chloro-4-fluorophenyl)-N^4-(2-methylpentan-3-yl)quinazoline-2,4-diamine], for which the half-maximal effective concentration (EC50) in assay [1] lay within 1 to 5 µM. The Ki on Son of Sevenless (SOS) was > 5 µM.

For the molecule `C[C@@H](Nc1nc(NCC2CCCC2)nc2ccccc12)C1CC1` [Example 3, (R)—N^2-(cyclopentylmethyl)-N^4-(1-cyclopropylethyl)quinazoline-2,4-diamine], the EC50 in assay [1] is 1 to 5 µM. The Ki on Son of Sevenless (SOS) is > 5 µM.

In assay [1], `C[C@@H](Nc1nc(NCC2CCCCC2)nc2ccccc12)C1CC1` [Example 4, (R)—N^2-(cyclohexylmethyl)-N^4-(1-cyclopropylethyl)quinazoline-2,4-diamine] gave an EC50 of 1 to 5 µM. Further, at Son of Sevenless (SOS), the Ki was > 5 µM.

As to `Clc1cc(Cl)cc(Nc2nc(NCc3cccs3)c3ccccc3n2)c1` [Example 9, N^2-(3,5-dichlorophenyl)-N^4-(thiophen-2-ylmethyl)quinazoline-2,4-diamine], the EC50 in assay [1] is < 1 µM. Besides, the Ki at Son of Sevenless (SOS) was > 5 µM.

The molecule `Fc1ccc(CNc2nc(NCc3ccco3)c3ccccc3n2)cc1` [Example 14, N^2-(4-fluorobenzyl)-N^4-(furan-2-ylmethyl)quinazoline-2,4-diamine] had an EC50 in assay [1] of 1 to 5 µM. Also, the Ki on Son of Sevenless (SOS) is > 5 µM.

The molecule `C[C@@H](Nc1nc(NCc2ccc(F)cc2F)nc2ccccc12)C1CC1` [Example 19, (R)—N^4-(1-cyclopropylethyl)-N^2-(2,4-difluorobenzyl)quinazoline-2,4-diamine] yielded an EC50 in assay [1] of 5 to 30 µM. Further, the Ki on Son of Sevenless (SOS) is > 5 µM.

Regarding `Fc1ccc(Nc2nc(NC(C3CC3)C3CC3)c3ccccc3n2)cc1Cl` [Example 21, N^2-(3-chloro-4-fluorophenyl)-N^4-(dicyclopropylmethyl)quinazoline-2,4-diamine], the EC50 in assay [1] was in the range of 1 to 5 µM. Besides, the Ki on Son of Sevenless (SOS) was > 5 µM.

In turn, `C[C@@H](Nc1nc(Nc2cc(F)cc(C#N)c2)nc2ccccc12)C1CC1` [Example 23, (R)-3-((4-((1-cyclopropylethyl)amino)quinazolin-2-yl)amino)-5-fluorobenzonitrile] came in with a concentration giving a half-maximal response (EC50) in assay [1] of 1 to 5 µM. At Son of Sevenless (SOS), the Ki is > 5 µM.

In the case of `Cc1cc(CNc2nc(N[C@H](C)C3CC3)c3ccccc3n2)ccc1F` [Example 24, (R)—N^4-(1-cyclopropylethyl)-N^2-(4-fluoro-3-methylbenzyl)quinazoline-2,4-diamine], the concentration giving a half-maximal response (EC50) in assay [1] was in the range of 1 to 5 µM. On Son of Sevenless (SOS), the Ki was > 5 µM.

As to `COc1cccc(CNc2nc(N[C@H](C)C3CC3)c3ccccc3n2)c1` [Example 27, (R)—N^4-(1-cyclopropylethyl)-N^2-(3-methoxybenzyl)quinazoline-2,4-diamine], the EC50 in assay [1] was 5 to 30 µM. The Ki on Son of Sevenless (SOS) was > 5 µM.

Molecule `Clc1ccc(Nc2nc(NCc3ccco3)c3ccccc3n2)cc1Cl` [Example 32, N^2-(3,4-dichlorophenyl)-N^4-(furan-2-ylmethyl)quinazoline-2,4-diamine] showed an EC50 in assay [1] of 1 to 5 µM. Moreover, at Son of Sevenless (SOS), the Ki is > 5 µM.

With `CC[C@@H](Nc1nc(Nc2ccc(F)c(Cl)c2)nc2ccccc12)C1CC1` [Example 34, (R)—N^2-(3-chloro-4-fluorophenyl)-N^4-(1-cyclopropylpropyl)quinazoline-2,4-diamine], the 50% effective concentration (EC50) in assay [1] was 5 to 30 µM. For the same molecule, the Ki at Son of Sevenless (SOS) was > 5 µM.

Consider `CC[C@@H](Nc1nc(Nc2cc(F)cc(F)c2)nc2ccccc12)C1CC1` [Example 35, (R)—N^4-(1-cyclopropylpropyl)-N^2-(3,5-difluorophenyl)quinazoline-2,4-diamine], for which, in assay [1], the EC50 fell in the range of 1 to 5 µM. Moreover, at Son of Sevenless (SOS), the Ki was > 5 µM.

`CCC[C@@H](Nc1nc(Nc2ccc(F)c(Cl)c2)nc2ccccc12)C1CC1` [Example 36, (R)—N^2-(3-chloro-4-fluorophenyl)-N^4-(1-cyclopropylbutyl)quinazoline-2,4-diamine]: the EC50 in assay [1] is 1 to 5 µM. Besides, the Ki on Son of Sevenless (SOS) is > 5 µM.

Take `C[C@@H](Nc1nc(Nc2ccc(F)c(Cl)c2)nc2ccccc12)c1cccs1` [Example 37, (R)—N^2-(3-chloro-4-fluorophenyl)-N^4-(1-(thiophen-2-yl)ethyl)quinazoline-2,4-diamine]: the EC50 in assay [1] was 1 to 5 µM. Moreover, the Ki on Son of Sevenless (SOS) was > 5 µM.

The molecule `C[C@@H](Nc1nc(Nc2cc(F)cc(F)c2)nc2ccccc12)c1cccs1` [Example 38, (R)—N^2-(3,5-difluorophenyl)-N^4-(1-(thiophen-2-yl)ethyl)quinazoline-2,4-diamine] yielded a 50% effective concentration (EC50) in assay [1] of 1 to 5 µM. In addition, at Son of Sevenless (SOS), the Ki is > 5 µM.

Regarding `C[C@@H](Nc1nc(Nc2ccc(F)c(Cl)c2)nc2ccccc12)C(C)(C)C` [Example 40, (R)—N^2-(3-chloro-4-fluorophenyl)-N^4-(3,3-dimethylbutan-2-yl)quinazoline-2,4-diamine], the half-maximal effective concentration (EC50) in assay [1] fell in the range of 1 to 5 µM. The Ki on Son of Sevenless (SOS) is > 5 µM.

For `C[C@@H](Nc1nc(NCC2CCCCC2)nc2c(CN)cccc12)c1cccs1` [Example 96, (R)-8-(aminomethyl)-N^2-(cyclohexylmethyl)-N^4-(1-(thiophen-2-yl)ethyl)quinazoline-2,4-diamine], the EC50 in assay [1] was 1 to 5 µM.

With `CCC(CC)CNc1nc(Nc2ccc(F)c(Cl)c2)nc2c(C#N)cccc12` [Example 99, 2-((3-chloro-4-fluorophenyl)amino)-4-((2-ethylbutyl)amino)quinazoline-8-carbonitrile], the EC50 in assay [1] fell in the range of 1 to 5 µM.

Molecule `C[C@@H](Nc1nc(NCc2cccc(Cl)c2F)nc2c(C3=CCNCC3)cccc12)C(C)(C)C` [Example 129, (R)—N^2-(3-chloro-2-fluorobenzyl)-N^4-(3,3-dimethylbutan-2-yl)-8-(1,2,3,6-tetrahydropyridin-4-yl)quinazoline-2,4-diamine] gave an EC50 in assay [1] of 5 to 30 µM.

The values above are taken from patent US11318137B2, “Quinazoline compounds as modulators of Ras signaling” (VANDERBILT UNIVERSITY, priority 2017, dated 2022).
